# Assay results from ChEMBL document CHEMBL4312001, “Combined therapy with Benznidazole and repurposed drugs Clofazimine and Benidipine for chronic Chagas disease” (Eur J Med Chem, 2019).
# Activity calls are given as the source filed them. The calls are words filed in the database; no cut-off is given here.
# Key:
# Trypanosoma cruzi [1] = assay: (§1) Antitrypanosomal activity against Trypanosoma cruzi K98 bloodstream form infected in C3H/HeNk mouse assessed as change in QRS morphology at 30 mg/kg/day, po administered via gavage for 30 consecutive days starting from 90 days post infection and measured at 120 days post infection by electrocardiographic analysis (reference value: 25 %); assay type: functional
# Trypanosoma cruzi [2] = assay: (§2) Antitrypanosomal activity against Trypanosoma cruzi K98 bloodstream form infected in C3H/HeNk mouse assessed as reduction in cardiac tissue inflammation at 30 to 75 mg/kg/day, po administered via gavage for 30 consecutive days starting from 90 days post infection and measured at 180 days post infection by hematoxylin and eosin staining based assay; assay type: functional, organism-based
# [3] = Toxicity in C3H/HeNk mouse infected with Trypanosoma cruzi K98 bloodstream form assessed as decrease in body weight at 30 mg/kg/day, po administered via gavage for 30 consecutive days starting from 90 days post infection measured at 150 days post infection; assay type: organism-based; details: in vivo
# [4] = Toxicity in C3H/HeNk mouse infected with Trypanosoma cruzi K98 bloodstream form assessed as decrease in body weight at 30 mg/kg/day, po administered via gavage for 30 consecutive days starting from 90 days post infection measured at 150 days post infection in presence of benznidazole; assay type: organism-based; details: in vivo
# [5] = Toxicity in C3H/HeNk mouse infected with Trypanosoma cruzi K98 bloodstream form assessed as decrease in body weight at 15 mg/kg/day, po administered via gavage for 30 consecutive days starting from 90 days post infection measured at 150 days post infection in presence of benznidazole; assay type: organism-based; details: in vivo
# Trypanosoma cruzi [6] = assay: as §2, with “parasite burden in skeletal muscle” for “cardiac tissue inflammation”, “qRT-PCR analysis” for “hematoxylin and eosin staining based assay”; assay type: functional, organism-based
# Trypanosoma cruzi [7] = assay: (§3) Antitrypanosomal activity against Trypanosoma cruzi K98 bloodstream form infected in C3H/HeNk mouse assessed as reduction in parasite burden in cardiac muscle at 30 to 75 mg/kg/day, po administered via gavage for 30 consecutive days starting from 90 days post infection and measured at 180 days post infection by qRT-PCR analysis; assay type: functional, organism-based
# [8] = Toxicity in C3H/HeNk mouse infected with Trypanosoma cruzi K98 bloodstream form assessed as decrease in body weight at 75 mg/kg/day, po administered via gavage for 30 consecutive days starting from 90 days post infection measured at 150 days post infection; assay type: organism-based; details: in vivo
# Trypanosoma cruzi [9] = assay: as §1, with “at 75” for “at 30”; assay type: functional
# Trypanosoma cruzi [10] = assay: as §1, with “170” for “120”; assay type: functional
# Trypanosoma cruzi [11] = assay: as §1, with “as” for “as change in”, “at 75” for “at 30”, “at 170” for “at 120”; assay type: functional
# Trypanosoma cruzi [12] = assay: (§4) Antitrypanosomal activity against Trypanosoma cruzi K98 bloodstream form infected in C3H/HeNk mouse assessed as effect on RR interval at 30 to 75 mg/kg/day, po administered via gavage for 30 consecutive days starting from 90 days post infection and measured at 120 to 170 days post infection by electrocardiographic analysis; assay type: functional, organism-based
# Trypanosoma cruzi [13] = assay: as §4, with “PR” for “RR”; assay type: functional, organism-based
# Trypanosoma cruzi [14] = assay: as §4, with “QT” for “RR”; assay type: functional, organism-based
# Trypanosoma cruzi [15] = assay: as §4, with “heart rate” for “RR interval”; assay type: functional, organism-based
# Trypanosoma cruzi [16] = assay: as §4, with “heart rate duration” for “RR interval”; assay type: functional, organism-based
# Vero = assay: Cytotoxicity against African green monkey Vero cells at 0.5 to 20 uM after 72 hrs by propidium iodide staining based flow cytometric analysis; assay type: cell-based; details: chlorocebus sabaeus
# Trypanosoma cruzi [17] = assay: as §3, with “blood” for “cardiac muscle”; assay type: functional, organism-based
# Trypanosoma cruzi [18] = assay: as §2, with “skeletal” for “cardiac”, “at” for “at 30 to”; assay type: functional, organism-based
# [19] = Toxicity in C3H/HeNk mouse infected with Trypanosoma cruzi K98 bloodstream form assessed as body weight gain at 75 mg/kg/day, po administered via gavage for 30 consecutive days starting from 90 days post infection measured up to 120 days post infection; assay type: organism-based; details: in vivo
# [20] = Toxicity in C3H/HeNk mouse infected with Trypanosoma cruzi K98 bloodstream form assessed as body weight gain at 30 mg/kg/day, po administered via gavage for 30 consecutive days starting from 90 days post infection measured up to 120 days post infection; assay type: organism-based; details: in vivo
# Trypanosoma cruzi [21] = assay: as §2, with “inflammation at 15 mg/kg/day, po” for “inflammation at 30 to 75 mg/kg/day, po”, “post infection in presence of benznidazole by hematoxylin” for “post infection by hematoxylin”; assay type: functional, organism-based
# Trypanosoma cruzi [22] = assay: (§5) Antitrypanosomal activity against Trypanosoma cruzi K98 bloodstream form infected in C3H/HeNk mouse assessed as reduction in parasite burden in skeletal muscle at 15 mg/kg/day, po administered via gavage for 30 consecutive days starting from 90 days post infection and measured at 180 days post infection in presence of benznidazole by qRT-PCR analysis; assay type: functional, organism-based
# Trypanosoma cruzi [23] = assay: as §5, with “cardiac” for “skeletal”; assay type: functional, organism-based
# Trypanosoma cruzi [24] = assay: (§6) Antitrypanosomal activity against Trypanosoma cruzi K98 bloodstream form infected in C3H/HeNk mouse assessed as effect on heart rate duration at 15 mg/kg/day, po administered via gavage for 30 consecutive days starting from 90 days post infection and measured at 120 to 170 days post infection in presence of benznidazole by electrocardiographic analysis; assay type: functional, organism-based
# Trypanosoma cruzi [25] = assay: as §6, with “rate” for “rate duration”; assay type: functional, organism-based
# Trypanosoma cruzi [26] = assay: as §6, with “QT interval” for “heart rate duration”; assay type: functional, organism-based
# Trypanosoma cruzi [27] = assay: as §6, with “PR interval” for “heart rate duration”; assay type: functional, organism-based
# Trypanosoma cruzi [28] = assay: as §6, with “RR interval” for “heart rate duration”; assay type: functional, organism-based
# Trypanosoma cruzi [29] = assay: (§7) Antitrypanosomal activity against Trypanosoma cruzi K98 bloodstream form infected in C3H/HeNk mouse assessed as change in QRS morphology at 15 mg/kg/day, po administered via gavage for 30 consecutive days starting from 90 days post infection and measured at 170 days post infection in presence of benznidazole by electrocardiographic analysis (reference value: 25 %); assay type: functional
# Trypanosoma cruzi [30] = assay: as §7, with “120” for “170”; assay type: functional
# Trypanosoma cruzi [31] = assay: as §5, with “blood” for “skeletal muscle”; assay type: functional, organism-based
# Trypanosoma cruzi [32] = assay: Antitrypanosomal activity against Trypanosoma cruzi K98 bloodstream form infected in C3H/HeNk mouse assessed as adipocytes replacement in skeletal muscle by measuring number of adipocyte at 15 mg/kg/day, po administered via gavage for 30 consecutive days starting from 90 days post infection and measured at 180 days post infection in presence of benznidazole by hematoxylin and eosin staining based …; assay type: functional
# [33] = Toxicity in C3H/HeNk mouse infected with Trypanosoma cruzi K98 bloodstream form assessed as body weight gain at 15 mg/kg/day, po administered via gavage for 30 consecutive days starting from 90 days post infection measured up to 120 days post infection in presence of benznidazole; assay type: organism-based; details: in vivo
# Trypanosoma cruzi [34] = assay: as §6, with “30” for “15”; assay type: functional, organism-based
# Trypanosoma cruzi [35] = assay: as §6, with “rate” for “rate duration”, “30” for “15”; assay type: functional, organism-based
# Trypanosoma cruzi [36] = assay: as §6, with “QT interval” for “heart rate duration”, “30” for “15”; assay type: functional, organism-based
# Trypanosoma cruzi [37] = assay: as §6, with “PR interval” for “heart rate duration”, “30” for “15”; assay type: functional, organism-based
# Trypanosoma cruzi [38] = assay: as §4, with “at 30 mg/kg/day, po” for “at 30 to 75 mg/kg/day, po”, “post infection in presence of benznidazole by electrocardiographic” for “post infection by electrocardiographic”; assay type: functional, organism-based
# Trypanosoma cruzi [39] = assay: as §7, with “30” for “15”; assay type: functional
# Trypanosoma cruzi [40] = assay: as §7, with “30” for “15”, “120” for “170”; assay type: functional
# Trypanosoma cruzi [41] = assay: as §5, with “cardiac” for “skeletal”, “30” for “15”; assay type: functional, organism-based
# Trypanosoma cruzi [42] = assay: as §5, with “30” for “15”; assay type: functional, organism-based
# Trypanosoma cruzi [43] = assay: as §5, with “blood” for “skeletal muscle”, “30” for “15”; assay type: functional, organism-based
# Trypanosoma cruzi [44] = assay: as §2, with “at 30 mg/kg/day, po” for “at 30 to 75 mg/kg/day, po”, “post infection in presence of benznidazole by hematoxylin” for “post infection by hematoxylin”; assay type: functional, organism-based
# Trypanosoma cruzi [45] = assay: Antitrypanosomal activity against Trypanosoma cruzi K98 bloodstream form infected in C3H/HeNk mouse assessed as adipocytes replacement in skeletal muscle by measuring number of adipocyte at 30 mg/kg/day, po administered via gavage for 30 consecutive days starting from 90 days post infection and measured at 180 days post infection in presence of benznidazole by hematoxylin and eosin staining based …; assay type: functional
# [46] = Toxicity in C3H/HeNk mouse infected with Trypanosoma cruzi K98 bloodstream form assessed as body weight gain at 30 mg/kg/day, po administered via gavage for 30 consecutive days starting from 90 days post infection measured up to 120 days post infection in presence of benznidazole; assay type: organism-based; details: in vivo
structure (smiles),measurement,setting,value
O=C(Cn1ccnc1[N+](=O)[O-])NCc1ccccc1 [BENZNIDAZOLE],Activity,Trypanosoma cruzi [1],0%
same,Activity,Trypanosoma cruzi [2],Active
same,Activity,[3],Non-Toxic
same,Activity,[4],Non-Toxic
same,Activity,[5],Non-Toxic
same,Activity,Trypanosoma cruzi [6],Active
same,Activity,Trypanosoma cruzi [7],Active
same,Activity,[8],Toxic
same,Activity,Trypanosoma cruzi [9],0%
same,Activity,Trypanosoma cruzi [10],0%
same,Activity,Trypanosoma cruzi [11],80%
same,Activity,Trypanosoma cruzi [12],inactive
same,Activity,Trypanosoma cruzi [13],inactive
same,Activity,Trypanosoma cruzi [14],inactive
same,Activity,Trypanosoma cruzi [15],inactive
same,Activity,Trypanosoma cruzi [16],inactive
same,Activity,Vero,Non-Toxic
same,Activity,Trypanosoma cruzi [17],Active
same,Activity,Trypanosoma cruzi [18],inactive
same,Activity,[19],Non-Toxic
same,Activity,[20],Non-Toxic
COC(=O)C1=C(C)NC(C)=C(C(=O)O[C@@H]2CCCN(Cc3ccccc3)C2)[C@@H]1c1cccc([N+](=O)[O-])c1.Cl,Activity,Trypanosoma cruzi [21],Active
same,Activity,Trypanosoma cruzi [22],Active
same,Activity,Trypanosoma cruzi [23],inactive
same,Activity,Trypanosoma cruzi [24],inactive
same,Activity,Trypanosoma cruzi [25],inactive
same,Activity,Trypanosoma cruzi [26],inactive
same,Activity,Trypanosoma cruzi [27],inactive
same,Activity,Trypanosoma cruzi [28],inactive
same,Activity,Trypanosoma cruzi [29],50%
same,Activity,Trypanosoma cruzi [30],50%
same,Activity,Vero,Non-Toxic
same,Activity,Trypanosoma cruzi [31],Active
same,Activity,Trypanosoma cruzi [32],1 - 3
same,Activity,[33],Non-Toxic
CC(C)/N=c1\cc2n(-c3ccc(Cl)cc3)c3ccccc3nc-2cc1Nc1ccc(Cl)cc1 [CLOFAZIMINE],Activity,Trypanosoma cruzi [34],inactive
same,Activity,Trypanosoma cruzi [35],inactive
same,Activity,Trypanosoma cruzi [36],inactive
same,Activity,Trypanosoma cruzi [37],inactive
same,Activity,Trypanosoma cruzi [38],inactive
same,Activity,Trypanosoma cruzi [39],0%
same,Activity,Trypanosoma cruzi [40],0%
same,Activity,Trypanosoma cruzi [41],inactive
same,Activity,Trypanosoma cruzi [42],Active
same,Activity,Vero,Non-Toxic
same,Activity,Trypanosoma cruzi [43],Active
same,Activity,Trypanosoma cruzi [44],inactive
same,Activity,Trypanosoma cruzi [45],1 - 3
same,Activity,[46],Non-Toxic
